# Measurements from the NIST ThermoML archive (doi:10.1016/j.tca.2018.07.026).
# ± gives the expanded uncertainty stated by the source.
# How the values were obtained:
# [1] = Crystal, Transpiration method
# [2] = molar heat capacity at constant pressure; settings: 101.33 kPa, Crystal, DSC
smiles,measurement,setting,value
N#Cc1ccc2ccccc2c1 [2-naphthalenecarbonitrile],vapor or sublimation pressure,[1]; 315.5 K,0.00091 ± 5e-05 kPa
same,vapor or sublimation pressure,[1]; 318.4 K,0.00122 ± 6e-05 kPa
same,vapor or sublimation pressure,[1]; 320.5 K,0.00152 ± 8e-05 kPa
same,vapor or sublimation pressure,[1]; 322.4 K,0.00195 ± 0.0001 kPa
same,vapor or sublimation pressure,[1]; 324.5 K,0.00237 ± 0.00011 kPa
same,vapor or sublimation pressure,[1]; 326.4 K,0.00284 ± 0.00014 kPa
same,vapor or sublimation pressure,[1]; 328.2 K,0.0035 ± 0.0002 kPa
same,vapor or sublimation pressure,[1]; 331.3 K,0.00463 ± 0.00022 kPa
same,vapor or sublimation pressure,[1]; 333.2 K,0.00579 ± 0.00029 kPa
same,vapor or sublimation pressure,[1]; 334.2 K,0.00641 ± 0.00032 kPa
same,molar heat capacity at constant pressure,[2]; 313.8 K,182.1 ± 37 J/K/mol
same,molar heat capacity at constant pressure,[2]; 314.4 K,182.8 ± 37 J/K/mol
same,molar heat capacity at constant pressure,[2]; 314.9 K,183.3 ± 37 J/K/mol
same,molar heat capacity at constant pressure,[2]; 315.3 K,183.7 ± 37 J/K/mol
same,molar heat capacity at constant pressure,[2]; 315.8 K,184.2 ± 37 J/K/mol
same,molar heat capacity at constant pressure,[2]; 316.3 K,184.6 ± 38 J/K/mol
same,molar heat capacity at constant pressure,[2]; 316.8 K,185 ± 38 J/K/mol
same,molar heat capacity at constant pressure,[2]; 317.3 K,185.3 ± 38 J/K/mol
same,molar heat capacity at constant pressure,[2]; 317.8 K,185.4 ± 38 J/K/mol
same,molar heat capacity at constant pressure,[2]; 318.2 K,185.5 ± 38 J/K/mol
same,molar heat capacity at constant pressure,[2]; 318.7 K,185.9 ± 38 J/K/mol
same,molar heat capacity at constant pressure,[2]; 319.2 K,186.1 ± 38 J/K/mol
same,molar heat capacity at constant pressure,[2]; 319.6 K,186.3 ± 38 J/K/mol
same,molar heat capacity at constant pressure,[2]; 320.1 K,186.6 ± 38 J/K/mol
same,molar heat capacity at constant pressure,[2]; 320.5 K,186.8 ± 38 J/K/mol
same,molar heat capacity at constant pressure,[2]; 320.9 K,187.1 ± 38 J/K/mol
same,molar heat capacity at constant pressure,[2]; 321.4 K,187.4 ± 38 J/K/mol
same,molar heat capacity at constant pressure,[2]; 321.8 K,187.5 ± 38 J/K/mol
same,molar heat capacity at constant pressure,[2]; 322.2 K,187.8 ± 38 J/K/mol
same,molar heat capacity at constant pressure,[2]; 322.7 K,188.1 ± 38 J/K/mol
same,molar heat capacity at constant pressure,[2]; 323.1 K,188.4 ± 38 J/K/mol
same,molar heat capacity at constant pressure,[2]; 323.5 K,188.6 ± 38 J/K/mol
same,molar heat capacity at constant pressure,[2]; 323.9 K,188.9 ± 38 J/K/mol
same,molar heat capacity at constant pressure,[2]; 324.4 K,189.1 ± 38 J/K/mol
same,molar heat capacity at constant pressure,[2]; 324.8 K,189.5 ± 38 J/K/mol
same,molar heat capacity at constant pressure,[2]; 325.2 K,189.8 ± 38 J/K/mol
same,molar heat capacity at constant pressure,[2]; 325.6 K,190.2 ± 39 J/K/mol
same,molar heat capacity at constant pressure,[2]; 326 K,190.7 ± 39 J/K/mol
same,molar heat capacity at constant pressure,[2]; 326.4 K,191.2 ± 39 J/K/mol
same,molar heat capacity at constant pressure,[2]; 326.8 K,191.5 ± 39 J/K/mol
same,molar heat capacity at constant pressure,[2]; 327.1 K,191.8 ± 39 J/K/mol
O=C(O)c1ccccc1 [benzoic acid],molar heat capacity at constant pressure,[2]; 318.8 K,122.9 ± 25 J/K/mol
same,molar heat capacity at constant pressure,[2]; 319.2 K,127.1 ± 26 J/K/mol
same,molar heat capacity at constant pressure,[2]; 319.7 K,130.8 ± 27 J/K/mol
same,molar heat capacity at constant pressure,[2]; 320.1 K,134.3 ± 27 J/K/mol
same,molar heat capacity at constant pressure,[2]; 320.6 K,137.7 ± 28 J/K/mol
same,molar heat capacity at constant pressure,[2]; 321 K,140.7 ± 29 J/K/mol
same,molar heat capacity at constant pressure,[2]; 321.4 K,143.4 ± 29 J/K/mol
same,molar heat capacity at constant pressure,[2]; 321.9 K,146.1 ± 30 J/K/mol
same,molar heat capacity at constant pressure,[2]; 322.3 K,148.4 ± 30 J/K/mol
same,molar heat capacity at constant pressure,[2]; 322.7 K,150.5 ± 31 J/K/mol
same,molar heat capacity at constant pressure,[2]; 323.1 K,152.4 ± 31 J/K/mol
same,molar heat capacity at constant pressure,[2]; 323.5 K,154.1 ± 31 J/K/mol
same,molar heat capacity at constant pressure,[2]; 324 K,155.6 ± 32 J/K/mol
same,molar heat capacity at constant pressure,[2]; 324.4 K,157 ± 32 J/K/mol
same,molar heat capacity at constant pressure,[2]; 324.8 K,158.3 ± 32 J/K/mol
same,molar heat capacity at constant pressure,[2]; 325.2 K,159.5 ± 32 J/K/mol
same,molar heat capacity at constant pressure,[2]; 325.6 K,160.4 ± 33 J/K/mol
same,molar heat capacity at constant pressure,[2]; 326 K,161.3 ± 33 J/K/mol
same,molar heat capacity at constant pressure,[2]; 326.4 K,162 ± 33 J/K/mol
same,molar heat capacity at constant pressure,[2]; 326.8 K,162.7 ± 33 J/K/mol
same,molar heat capacity at constant pressure,[2]; 327.2 K,163.4 ± 33 J/K/mol
same,molar heat capacity at constant pressure,[2]; 327.6 K,163.9 ± 33 J/K/mol
same,molar heat capacity at constant pressure,[2]; 328 K,164.3 ± 33 J/K/mol
same,molar heat capacity at constant pressure,[2]; 328.3 K,164.8 ± 34 J/K/mol
same,molar heat capacity at constant pressure,[2]; 328.7 K,165.1 ± 34 J/K/mol
same,molar heat capacity at constant pressure,[2]; 329.1 K,165.3 ± 34 J/K/mol
same,molar heat capacity at constant pressure,[2]; 329.5 K,165.6 ± 34 J/K/mol
same,molar heat capacity at constant pressure,[2]; 329.9 K,165.7 ± 34 J/K/mol
same,molar heat capacity at constant pressure,[2]; 330.3 K,165.9 ± 34 J/K/mol
same,molar heat capacity at constant pressure,[2]; 330.6 K,166 ± 34 J/K/mol
same,molar heat capacity at constant pressure,[2]; 331 K,166.3 ± 34 J/K/mol
same,molar heat capacity at constant pressure,[2]; 331.4 K,166.3 ± 34 J/K/mol
same,molar heat capacity at constant pressure,[2]; 331.8 K,166.4 ± 34 J/K/mol
same,molar heat capacity at constant pressure,[2]; 332.1 K,166.4 ± 34 J/K/mol
same,molar heat capacity at constant pressure,[2]; 332.5 K,166.4 ± 34 J/K/mol
same,molar heat capacity at constant pressure,[2]; 332.9 K,166.5 ± 34 J/K/mol
same,molar heat capacity at constant pressure,[2]; 333.3 K,166.5 ± 34 J/K/mol
same,molar heat capacity at constant pressure,[2]; 333.6 K,166.5 ± 34 J/K/mol
same,molar heat capacity at constant pressure,[2]; 334 K,166.6 ± 34 J/K/mol
same,molar heat capacity at constant pressure,[2]; 334.4 K,166.6 ± 34 J/K/mol
same,molar heat capacity at constant pressure,[2]; 334.8 K,166.5 ± 34 J/K/mol
same,molar heat capacity at constant pressure,[2]; 335.1 K,166.6 ± 34 J/K/mol
same,molar heat capacity at constant pressure,[2]; 335.5 K,166.7 ± 34 J/K/mol
same,molar heat capacity at constant pressure,[2]; 335.9 K,166.7 ± 34 J/K/mol
same,molar heat capacity at constant pressure,[2]; 336.2 K,166.7 ± 34 J/K/mol
same,molar heat capacity at constant pressure,[2]; 336.6 K,166.7 ± 34 J/K/mol
same,molar heat capacity at constant pressure,[2]; 337 K,166.7 ± 34 J/K/mol
same,molar heat capacity at constant pressure,[2]; 337.3 K,166.7 ± 34 J/K/mol
same,molar heat capacity at constant pressure,[2]; 337.7 K,166.9 ± 34 J/K/mol
same,molar heat capacity at constant pressure,[2]; 338.1 K,166.9 ± 34 J/K/mol
same,molar heat capacity at constant pressure,[2]; 338.5 K,167 ± 34 J/K/mol
same,molar heat capacity at constant pressure,[2]; 338.8 K,167.1 ± 34 J/K/mol
same,molar heat capacity at constant pressure,[2]; 339.2 K,167.2 ± 34 J/K/mol
same,molar heat capacity at constant pressure,[2]; 339.6 K,167.3 ± 34 J/K/mol
same,molar heat capacity at constant pressure,[2]; 339.9 K,167.4 ± 34 J/K/mol
same,molar heat capacity at constant pressure,[2]; 340.3 K,167.5 ± 34 J/K/mol
same,molar heat capacity at constant pressure,[2]; 340.7 K,167.6 ± 34 J/K/mol
same,molar heat capacity at constant pressure,[2]; 341 K,167.7 ± 34 J/K/mol
same,molar heat capacity at constant pressure,[2]; 341.4 K,167.8 ± 34 J/K/mol
same,molar heat capacity at constant pressure,[2]; 341.8 K,167.9 ± 34 J/K/mol
same,molar heat capacity at constant pressure,[2]; 342 K,168 ± 34 J/K/mol
c1ccc2ccccc2c1 [naphthalene],vapor or sublimation pressure,[1]; 288.2 K,0.00418 ± 0.00021 kPa
same,vapor or sublimation pressure,[1]; 290.7 K,0.00548 ± 0.00028 kPa
same,vapor or sublimation pressure,[1]; 293.2 K,0.00698 ± 0.00035 kPa
same,vapor or sublimation pressure,[1]; 298.2 K,0.01114 ± 0.00054 kPa
same,vapor or sublimation pressure,[1]; 303.2 K,0.01811 ± 0.00088 kPa
same,vapor or sublimation pressure,[1]; 308 K,0.02903 ± 0.0014 kPa
same,vapor or sublimation pressure,[1]; 313.1 K,0.04408 ± 0.0021 kPa
same,vapor or sublimation pressure,[1]; 318.2 K,0.0671 ± 0.0031 kPa
same,vapor or sublimation pressure,[1]; 323.1 K,0.102 ± 0.0048 kPa
same,vapor or sublimation pressure,[1]; 328.1 K,0.1538 ± 0.007 kPa
same,vapor or sublimation pressure,[1]; 330.5 K,0.1867 ± 0.0086 kPa
same,vapor or sublimation pressure,[1]; 333 K,0.2235 ± 0.01 kPa
